# Source: US6706709B2, “Indolinone derivatives as protein kinase/phosphatase inhibitors” (Sugen, Inc., priority 2000, dated 2004)
# What was measured:
# GST-Flk1 = GST-Flk1 (UniProt P35918); test: GST-FLK-1 bioassay (bio flkGST); format: biochemical
# Description: This assay analyzes the tyrosine kinase activity of GST-Flk1 on poly glu tyr peptides.
# 2. poly glu tyr 4:1, lyophilizate (Sigma Catalog # P0275). Prepare 1 mg/mL poly glu tyr in sterile PBS and store in 1 ml aliquots at −20° C.
# 3. Preparation of poly glu tyr (pEY) coated assay plates: Coat 2 μg/well of poly glu tyr (pEY) in 100 μL PBS at room temperature for 2 hours or at +4° C. overnight. Cover plates well to prevent evaporation.
# 4. PBS Buffer: To make 1 liter of a 1× working solution, mix […], 1.15 g NA2HPO4, 0.2 g KCl and 8 g NaCl in approx. 900 mL dH2O. When all reagents have dissolved, adjust the pH to 7.2 with HCl. Bring total volume to 1L with dH2O.
# 5. PBS-Tw Buffer: To 1L of PBS Buffer, add […] Tween-20. Stir until dissolved.
# 6. TBB-Blocking Buffer: To make one liter of a 1× working solution, mix 1.21 g TRIS, 8.77 g NaCl, 1 mL TWEEN-20 in approximately 900 mL dH2O. Adjust pH to 7.2 with HCl. Add 10 g BSA, stir to dissolve. Bring total volume to 1 L with dH2O. Filter to remove particulate matter.
# 7. 1% BSA in PBS: To make a 1× working solution, add 10 g BSA to approx. 990 mL PBS buffer, stir to dissolve. Adjust total volume to 1 L with PBS buffer, filter to remove particulate matter.
# 9. GST-Flk1cd purified from sf9 recombinant baculovirus transformation.
# 13. Kinase Dilution Buffer (KDB): Mix 10 mL Hepes (pH 7.5), 1 mL of 5 M NaCl, 40 μL of 100 mM NaVO4 and 0.4 mL of 5% BSA in dH2O with 88.56 mL of dH2O.
# 14. NUNC-96-well V bottom polypropylene plates Applied Scientific Catalog # AS-72092
# 15. EDTA: Mix 14.12 g ethylenediaminetetraacetic acid (EDTA) to approx. 70 mL dH2O. Add 10N NaOH until EDTA dissolves. Adjust pH to 8.0. Adjust total volume to 100 mL with dH2O.
# 16. 1° Antibody Dilution Buffer: Mix 10 mL of 5% BSA in PBS buffer with 89.5 mL TBSTw.
# 17. Anti-phosphotyrosine monoclonal conjugated to horseradish peroxidase (PY99 HRP, Santa Cruz Biotech).
# 18. 2,2′-Azino-bis(3-ethylbenzthiazoline-6-sulfonic acid (ABTS, Moss, Cat. No. ABST).
# 1. Coat Corning 96 well ELISA plates with 2 μg of polyEY peptide in sterile PBS as described in step 3 of Materials and Reagents.
# 2. Remove unbound liquid from wells by inverting plate. Wash once with TBSTw. Pat the plate on a paper towel to remove excess liquid.
# 3. Add 100 μL of 1% BSA in PBS to each well. Incubate, with shaking, for 1 hr. at room temperature.
# 5. Soak wells with 50 mM Hepes pH7.5 (150 μL/well).
# 6. Dilute test compound with dH2O/4% DMSO to 4 times the desired final assay concentration in 96-well polypropylene plates.
# 7. Add 25 μL diluted test compound to ELISA plate.
# 8. Add 25 μL of 40 mM MnCl2 with 4×ATP (2 μM) to all wells.
# 9. Add 25 μL 0.5 M EDTA to negative control wells.
# 10. Dilute GST-Flk1 0.005 μg (5 ng)/well in KDB. For 50 ml KDB add 100 μL of 0.050 mg/mL GST-Flk1 enzyme.
# 11. Add 50 μL of diluted enzyme to each well.
# 12. Incubate, with shaking, for 15 minutes at room temperature.
# 13. Stop reaction by adding 50 μL of 250 mM EDTA (pH 8.0).
# 14. Wash 3× with TBSTw and pat plate on paper towel to remove excess liquid.
# 15. Add 100 μL per well anti-phosphotyrosine HRP conjugate, 1:5,000 dilution in antibody dilution buffer. Incubate, with shaking for 90 min. at room temperature.
# 16. Wash as described above in step 14.
# 17. Add 100 μL of room temperature ABTS solution to each well.
# 18. Incubate, with shaking, for 10 to 15 minutes. Remove any bubbles.
# 19. Stop reaction by adding 20 μL of 10% SDS.
# 20. Read assay on Dynatech MR7000 ELISA reader: test filter at 410 nM; reference filter at 630 nM.
# EGF Receptor = target: T1, EGF Receptor (Homo sapiens, UniProt P00533); test: bio EGF (EGF Receptor ELISA); format: biochemical
# T1 construct: expressed in transfected cells; host or cells: NIH 3T3/C7 (mouse fibroblasts engineered to express human EGF-R)
# T1 sequence (P00533 25-1210): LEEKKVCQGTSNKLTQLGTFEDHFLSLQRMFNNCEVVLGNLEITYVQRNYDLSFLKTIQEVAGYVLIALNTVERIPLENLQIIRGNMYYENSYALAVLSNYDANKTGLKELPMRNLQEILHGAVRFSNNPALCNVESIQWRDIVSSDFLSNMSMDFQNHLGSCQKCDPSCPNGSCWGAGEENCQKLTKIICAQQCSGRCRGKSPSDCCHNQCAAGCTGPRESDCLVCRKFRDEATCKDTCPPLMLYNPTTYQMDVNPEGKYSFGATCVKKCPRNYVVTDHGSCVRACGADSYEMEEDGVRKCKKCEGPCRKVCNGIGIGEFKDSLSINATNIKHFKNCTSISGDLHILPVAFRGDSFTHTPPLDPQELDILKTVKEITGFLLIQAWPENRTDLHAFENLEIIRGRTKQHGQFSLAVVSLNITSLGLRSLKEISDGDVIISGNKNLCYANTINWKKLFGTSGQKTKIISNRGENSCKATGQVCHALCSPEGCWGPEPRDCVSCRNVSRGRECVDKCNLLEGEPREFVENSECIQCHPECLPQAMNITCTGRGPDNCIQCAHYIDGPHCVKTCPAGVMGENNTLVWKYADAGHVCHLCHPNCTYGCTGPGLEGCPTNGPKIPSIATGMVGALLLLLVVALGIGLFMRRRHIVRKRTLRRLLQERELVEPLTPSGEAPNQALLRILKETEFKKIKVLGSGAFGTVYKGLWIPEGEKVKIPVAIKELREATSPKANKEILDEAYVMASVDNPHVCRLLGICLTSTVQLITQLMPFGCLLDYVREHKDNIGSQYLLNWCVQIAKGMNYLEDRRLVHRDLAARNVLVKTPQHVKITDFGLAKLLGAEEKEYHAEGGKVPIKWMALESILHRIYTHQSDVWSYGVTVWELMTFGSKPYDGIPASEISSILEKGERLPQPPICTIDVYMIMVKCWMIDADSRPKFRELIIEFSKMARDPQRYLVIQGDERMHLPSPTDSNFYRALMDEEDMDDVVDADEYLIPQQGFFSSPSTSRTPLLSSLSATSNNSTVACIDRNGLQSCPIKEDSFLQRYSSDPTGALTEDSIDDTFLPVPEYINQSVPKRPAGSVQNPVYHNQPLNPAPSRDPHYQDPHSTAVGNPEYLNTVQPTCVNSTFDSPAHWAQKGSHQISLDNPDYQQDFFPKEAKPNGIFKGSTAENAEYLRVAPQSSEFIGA
# Description: EGF Receptor kinase activity in cells genetically engineered to express human EGF-R was measured as described below:
# The following materials and reagents were used:
# b. 05-101 (UBI) (a monoclonal antibody recognizing an EGFR extracellular domain).
# c. Anti-phosphotyrosine antibody (anti-Ptyr) (polyclonal).
# d. Detection antibody: Goat anti-rabbit lgG horse radish peroxidase conjugate, TAGO, Inc., Burlingame, Calif.
# Keep solution in dark at 4° C. until used.
# The following protocol was used:
# 1. […] Coated plates are good for up to 10 days when stored at 4° C.
# 2. On day of use, remove coating buffer and replace with blocking buffer (5% Carnation Instant Non-Fat Dry Milk in PBS). Incubate the plate, shaking, at room temperature (about 23° C. to 25° C.) for 30 minutes. Just prior to use, remove blocking buffer and wash plate 4 times with TBST buffer.
# 2. Choose dishes having 80-90% confluence for the experiment. Trypsinize cells and stop reaction by adding 10% CS DMEM medium. Suspend cells in DMEM medium (10% CS DMEM medium) and centrifuge once at 1000 rpm at room temperature for 5 minutes.
# 3. Resuspend cells in seeding medium (DMEM, 0.5% bovine serum), and count the cells using trypan blue. Viability above 90% is acceptable. Seed cells in DMEM medium (0.5% bovine serum) at a density of 10,000 cells per well, 100 μL per well, in a 96 well microtiter plate. Incubate seeded cells in 5% CO2 at 37° C. for about 40 hours.
# 1. Check seeded cells for contamination using an inverted microscope. Dilute drug stock (10 mg/ml in DMSO) 1:10 in DMEM medium, then transfer 5 μL to a test well for a final drug dilution of 1:200 and a final DMSO concentration of 1%. Control wells receive DMSO alone. Incubate in 5% CO2 at 37° C. for one hour.
# 2. Prepare EGF ligand: dilute stock EGF in DMEM so that upon transfer of 10 μL dilute EGF (1:12 dilution), 25 nM final concentration is attained.
# 3. Prepare fresh 10 ml HNTG* sufficient for 100 μL per well wherein HNTG* comprises: HNTG stock (2.0 mL), milli-Q H2O (7.3 mL), EDTA, 100 mM, pH 7.0 (0.5 mL), Na3VO4 0.5 M (0.1 mL) and Na4(P2O7), 0.2 M (0.1 mL).
# 5. After two hours incubation with drug, add prepared EGF ligand to cells, 10 μL per well, to yield a final concentration of 25 nM. Control wells receive DMEM alone. Incubate, shaking, at room temperature, for 5 minutes.
# 6. Remove drug, EGF, and DMEM. Wash cells twice with PBS. Transfer HNTG* to cells, 100 μL per well. Place on ice for 5 minutes. Meanwhile, remove blocking buffer from other ELISA plate and wash with TBST as described above.
# 7. With a pipette tip securely fitted to a micropipettor, scrape cells from plate and homogenize cell material by repeatedly aspirating and dispensing the HNTG* lysis buffer. Transfer lysate to a coated, blocked, and washed ELISA plate. Incubate shaking at room temperature for one hour.
# 8. Remove lysate and wash 4 times with TBST. Transfer freshly diluted anti-Ptyr antibody to ELISA plate at 100 μL per well. Incubate shaking at room temperature for 30 minutes in the presence of the anti-Ptyr antiserum (1:3000 dilution in TBST).
# 9. Remove the anti-Ptyr antibody and wash 4 times with TBST. Transfer the freshly diluted TAGO 30 anti-rabbit IgG antibody to the ELISA plate at 100 μL per well. Incubate shaking at room temperature for 30 minutes (anti-rabbit IgG antibody: 1:3000 dilution in TBST).
# 10. Remove detection antibody and wash 4 times with TBST. Transfer freshly prepared ABTS/H2O2 solution to ELISA plate, 100 μL per well. Incubate at room temperature for 20 minutes. ABTS/H2O2 solution: 1.2 μL 30% H2O2in 10 mL ABTS stock.
# 11. Stop reaction by adding 50 μL 5N H2SO4 (optional), and determine O.D. at 410 nm.
# 12. The maximal phosphotyrosine signal is determined by subtracting the value of the negative controls from the positive controls. The percent inhibition of phosphotyrosine content for extract-containing wells is then calculated, after subtraction of the negative controls.
Structure (SMILES),IC50 (GST-Flk1) [nM],IC50 (EGF Receptor) [nM]
"CCN(CC)CCCc1ccc2[nH]c(C=C3C(=O)Nc4ccc(-c5ccccc5)cc43)cc2c1 [IN-004, 3-[5-(3-diethylamino-propyl)-1H-indol-2-ylmethylene]-5-phenyl-1,3-dihydro-indol-2-one]",470,2570
"CC(C)NS(=O)(=O)c1ccc2c(c1)C(=Cc1cc3cc(OCCN4CCOCC4)ccc3[nH]1)C(=O)N2 [IN-055, 3-[5-(2-morpholin-4-yl-ethoxy)-1H-indol-2-ylmethylene]-2-oxo-2,3-dihydro-1H-indole-5-sulfonic acid isopropylamide]",1500,3500
"CNS(=O)(=O)c1ccc2c(c1)C(=Cc1c[nH]c3ccccc13)C(=O)N2 [IN-068, 3-(1H-indol-3-ylmethylene)-2-oxo-2,3-dihydro-1H-indole-5-sulfonic acid methylamide]",> 20000,> 100000
"O=C1Nc2ccc(S(=O)(=O)Nc3cccc(Cl)c3)cc2C1=Cc1cc2cc(OCCN3CCOCC3)ccc2[nH]1 [IN-059, 3-[5-(2-morpholin-4-yl-ethoxy)-1H-indol-2-ylmethylene]-2-oxo-2,3-dihydro-1H-indole-5-sulfonic acid (3-chloro-phenyl)-amide]",630,> 20000
"CN(C)CCOc1ccc2[nH]c(C=C3C(=O)Nc4ccc(Br)cc43)cc2c1 [IN-011, 5-bromo-3-[5-(2-dimethylamino-ethoxy)-1H-indol-2-ylmethylene]-1,3-dihydro-indol-2-one]",520,1360
"O=C1Nc2ccc(S(=O)(=O)Nc3ccccc3)cc2C1=Cc1cc2cc(OCCN3CCOCC3)ccc2[nH]1 [IN-056, 3-[5-(2-morpholin-4-yl-ethoxy)-1H-indol-2-ylmethylene]-2-oxo-2,3-dihydro-1H-indole-5-sulfonic acid phenylamide]",9960,15500
"O=C1Nc2ccc(S(=O)(=O)N3CCc4ccccc4C3)cc2C1=Cc1cc2cc(OCCN3CCCC3)ccc2[nH]1 [IN-051, 5-(3,4-dihydro-1H-isoquinoline-2-sulfonyl)-3-[5-(2-pyrrolidin-1-yl-ethoxy)-1H-indol-2-ylmethylene]-1,3-dihydro-indol-2-one]",370,3520
"O=C1Nc2ccc(S(=O)(=O)Nc3ccc(Cl)cc3F)cc2C1=Cc1cc2cc(OCCN3CCOCC3)ccc2[nH]1 [IN-061, 3-[5-(2-morpholin-4-yl-ethoxy)-1H-indol-2-ylmethylene]-2-oxo-2,3-dihydro-1H-indole-5-sulfonic acid (4-chloro-2-fluoro-phenyl)-amide]",390,4460
"CN(C)S(=O)(=O)c1ccc2c(c1)C(=Cc1c[nH]c3ccccc13)C(=O)N2 [IN-072, 3-(1H-indol-3-ylmethylene)-2-oxo-2,3-dihydro-1H-indole-5-sulfonic acid dimethylamide]",> 20000,> 100000

# Compounds with a lower IC50 (GST-Flk1), results first:
IC50 (GST-Flk1) [nM],IC50 (EGF Receptor) [nM],Structure (SMILES)
130,4380,"O=C1Nc2ccc(S(=O)(=O)Nc3ccc(Cl)cc3F)cc2C1=Cc1cc2cc(OCCN3CCCC3)ccc2[nH]1 [IN-049, 2-oxo-3-[5-(2-pyrrolidin-1-yl-ethoxy)-1H-indol-2-ylmethylene]-2,3-dihydro-1H-indole-5-sulfonic acid (4-chloro-2-fluoro-phenyl)-amide]"
< 9,8200,"O=C1Nc2cccc(CCO)c2C1=Cc1cc2cc(OCCN3CCOCC3)ccc2[nH]1 [IN-033, 4-(2-hydroxy-ethyl)-3-[5-(2-morpholin-4-yl-ethoxy)-1H-indol-2-ylmethylene]-1,3-dihydro-indol-2-one]"
160,4690,"O=C1Nc2ccc(-c3ccccc3)cc2C1=Cc1cc2cc(OCCN3CCCC3)ccc2[nH]1 [IN-006, 5-phenyl-3-[5-(2-pyrrolidin-1-yl-ethoxy)-1H-indol-2-ylmethylene]-1,3-dihydro-indol-2-one]"
240,> 20000,"O=C1Nc2cc(C(=O)O)ccc2C1=Cc1cc2cc(OCCN3CCCC3)ccc2[nH]1 [IN-023, 2-oxo-3-[5-(2-pyrrolidin-1-yl-ethoxy)-1H-indol-2-ylmethylene]-2,3-dihydro-1H-indole-6-carboxylic acid]"
350,88800,"CN(C)CCOc1ccc2[nH]c(C=C3C(=O)Nc4ccccc43)cc2c1 [IN-010, 3-[5-(2-dimethylamino-ethoxy)-1H-indol-2-ylmethylene]-1,3-dihydro-indol-2-one]"
